Here are results for two compounds from patent US9908886B2 (Agency for Science, Technology and Research, priority 2012, dated 2018).

Assay [1] relates to D1.1 cells. In words: Cell cytotoxicity assay (CellTiter-Glo). The format is cell-based. The protocol: (§1) Cancer cell lines, MV-4-11 (leukemia), P116.c139 (acute T cell leukemia) and D1.1 (acute T cell leukemia), were purchased from ATCC and cultured according to supplier's recommendations. K562 cells (myelogenous leukemia) over-expressing eIF4E, were also used for the cytotoxicity assay. For cells treated for 48 hours, 5000 cells were seeded in 70 μl of growth medium in black, flat-bottom 96-well plate. For cells treated for six days, 1000 cells were seeded in 70 μl of growth medium in black, flat-bottom 96-well plate. […] 50 μl of the diluted compounds was added to the cells and incubated at 37° C. in 5% CO2. After 48 hours or six days treatment, cell viability was determined by CellTiter-Glo Luminescent Cell Viability Assay (Promega, Madison, Wis.). 120 μl of the reagent was added to the cells and luminescence was measured using Tecan Safire Reader. Data was analysed with Graphpad Prism software and the figures represented indicate the half maximal inhibitory concentration (IC50). Error bars denote standard deviation (SD).
In general terms: Cellular ATP, detected with luciferase, serves as a proxy for viable cell number.

The test system of assay [2] is K562 cells over-expressing eIF4E. In words: Cell cytotoxicity assay (CellTiter-Glo). The format is cell-based. As for the experimental part: as §1
Assay [3] relates to MV-4-11 cells. Description: Cell cytotoxicity assay (CellTiter-Glo). The format is cell-based. As for the experimental part:
as §1

Assay [4] concerns P116.c139 cells. Description: Cell cytotoxicity assay (CellTiter-Glo). Type of assay: cell-based. The protocol:
as §1

Assay [5] concerns nuclear beta-catenin in BC-CML cells. Conditions: background section; cited from earlier work.
The test system of assay [6] is CD34+ BC-CML primary cells. Conditions: background section; including cells carrying T315I mutation; cited from earlier work.
Assay [7] concerns eIF4E phosphorylation in BC GMPs. Conditions: background section; cited from earlier work.
Assay [8] has as its system BC CD34+ CML cells. Conditions: in vitro treatment of the cells; background section; cited from earlier work.
For assay [9], the system named is patient-derived BC cells in NSG mice. Conditions: in vivo treatment for three consecutive weeks; CGP57380 40 mg/kg/d, dasatinib 5 mg/kg/d; background section; cited from earlier work.
The subject of assay [10] is TNF production by macrophage. Conditions: TLR agonist stimulation; literature; cited from earlier work.

Entries after “also recorded” stand apart in the source; their conditions may differ. Like-named read-outs stand apart in the source and are kept apart here.

Usually IC50 stands for the concentration needed to halve the response being measured. For `CC(=O)C1=C(O)C=C2Oc3c(C(N)=O)c(O)cc(O)c3[C@]2(C)C1=O` [Cercosporamide, reference compound], the IC50 in assay [1] (48 hours, read-out: IC50 after 48 hours of treatment, D1.1) is 20.2 µM; in assay [1] (6 days, read-out: IC50 after 6 days of treatment, D1.1), 17.3 µM; in assay [2] (48 hours, read-out: IC50 after 48 hours of treatment, K562), above 50 µM; in [2] (6 days, read-out: IC50 after 6 days of treatment, K562), 4.3 µM; in assay [3] (48 hours, read-out: IC50 after 48 hours of treatment, MV-4-11), above 50 µM; in assay [3] (6 days, read-out: IC50 after 6 days of treatment, MV-4-11), 4 µM. Besides, the concentration for half-maximal inhibition (IC50) is above 50 µM in assay [4] (48 hours, read-out: IC50 after 48 hours of treatment, P116.c139) and 4.9 µM in assay [4] (6 days, read-out: IC50 after 6 days of treatment, P116.c139).
On to `Nc1ncnc2n[nH]c(Nc3ccc(F)cc3)c12` [CGP57380], for which the “accumulation of active nuclear beta-catenin in BC GMPs” value in assay [5] is on record as “preventes accumulation of active nuclear beta-catenin”. For the same compound, the “ability of CD34+ BC cells to serially replate for more than 8 weeks in methylcellulose” value in [6] is reported as “impaired the ability of CD34+ BC cells”. In addition, in assay [7], the “eIF4E phosphorylation in BC GMPs” value was “inhibited eIF4E phosphorylation”. The “ability of BC CD34+ CML cells to engraft NSG mice” value in assay [8] is listed as “retarded their ability to engraft NSG mice”. Further, the “serial transplantation of BC cells in NSG mice at 16 weeks” value in assay [9] was “prevented BC cells from serially transplanting NSG mice”. Besides, in assay [10], the “production / release of TNF by macrophage” value is “inhibited by MNK kinases inhibitor CGP57380 in a dose dependant fashion; also recorded: inhibits the release of TNF alpha by macrophage”.
